Results reported in PMC13206195, “Low‐dose cannabidiol increases plasma concentrations of amitriptyline: A clinical drug–drug interaction study” (British Journal of Clinical Pharmacology, 2025).
Where two headings read alike, the source gives them in different places.

How the values were obtained:
[1] = Plasma pharmacokinetics (non-compartmental analysis) in open-label, fixed-sequence, 2-way crossover study in healthy participants; conditions: for AUClast, Geometric mean / AUClast, Mean / AUClast, Median / Clast, Geometric mean / Clast, Mean / Clast, Median / Cmax, Geometric mean / Cmax, Mean / Cmax, Median / tlag, Median / tmax, Median / AUC(0-t) / Cmax: fasted, plasma; for AUC(0-t) / Cmax: po; for AUC(0-t): AUClast
Protocol: (§1) This study was an open‐label, fixed sequence, 2‐way crossover study in 13 healthy participants. On Day 1, 25 mg amitriptyline and 50 mg tramadol were orally administered concurrently, followed by a wash‐out period of at least 7 days. On Day 8, 30 mg of oral CBD oil was administered 1 h prior to amitriptyline and tramadol. On Days 1 and 8, participants presented to the clinical research unit in the morning and were discharged in the evening, briefly returning in the morning of Days 2 and 9 for pharmacokinetic sampling.
The cannabidiol formulation used in this study was Clinican®, an almond oil‐based formulation containing 10% cannabidiol and manufactured by Clinical Cannabis Care (Breukelen, the Netherlands) and administered orally with 240 mL of water following an overnight fast. Single doses of 30 mg CBD were administered. […] Furthermore, we estimated that the 30 mg CBD dose is at the upper end of the range of CBD intake of patients who use CBD‐rich varieties of medicinal cannabis (or formulations containing THC and CBD, like Sativex®) for treatment of neuropathic pain symptoms,[23] and as well as an approximately median dose for OTC CBD users. Cannabidiol was administered one hour prior to amitriptyline and tramadol (during visit 2 only) to offset the slower absorption expected from an oil‐based cannabinoid formulation, compared to the victim drugs.
Generic oral formulations of tramadol (50 mg tramadol hydrochloride capsule) and amitriptyline (25 mg hydrochloride tablet) were used in this study. These doses were at the low end of the therapeutic range, allowing for a safety margin for possible increases in plasma concentrations when co‐administered with CBD. Tramadol and amitriptyline were not known to induce or inhibit CYP‐enzymes in general, and no specific pharmacokinetic interactions between the two victim drugs were known to the investigators. […] However, this risk was deemed clinically irrelevant when low, single doses were administered to healthy volunteers. Based on these consideration regarding pharmacokinetics and safety, the two victim drugs were administered together in a cocktail design.
Sampling for pharmacokinetics was performed pre‐dose and at 1, 2, 3, 4, 5, 6, 8, 12 and 24 h following the administration of amitriptyline and tramadol. Approximately 4 mL blood was collected via an i.v. catheter placed in an antecubital vein in the arm in polypropylene K2EDTA tubes. Following collection, samples were immediately cooled on ice. Within 30 min of collection, plasma was separated by centrifugation at approximately 2000 g for 10 min and promptly transferred into amber glass vials and stored at […]. The samples were analysed by the iC42 Laboratory (Department of Anesthesiology, University of Colorado, Aurora, Colorado, USA). CBD and CBD metabolites were analysed using a validated assay that was previously published (CBD metabolite concentrations not reported in this manuscript).[33] Concentrations of amitriptyline, nortriptyline, tramadol and O‐desmethyltramadol were determined using a validated assay that was based on a previously published high‐performance liquid chromatography tandem mass spectrometry (HPLC‐MS/MS) method.[34] Details regarding the bioanalytical assays used to measure CBD, amitriptyline, nortriptyline, tramadol and O‐desmethyltramadol are located in the Supplementary Materials section.
R 3.6.1 for Windows (R Foundation for Statistical Computing/R development Core Team, Vienna, Austria, 2019), PKNCA package version 0.9.5, was used to calculate pharmacokinetic parameters. PK parameter calculations were based on actual sampling time.

[2] = cited from earlier work; for mean (SD) AUC: previous trial
clinical = experiment: clinical
Protocol: as §1
To establish whether significant treatment effects could be detected, the PK parameters were compared with a mixed effects model analysis of variance (ANOVA) with treatment as a fixed factor and participants as a random factor on log‐transformed data. The general treatment effect and specific contrasts were reported with the estimated difference and the 95% confidence interval, the least square mean estimates and the p‐value. All calculations were performed using SAS for Windows V9.4 (SAS Institute, Inc., Cary, NC, USA).

CYP2D6 = conditions: cited from earlier work
CYP3A4 and CYP2B6 = conditions: cited from earlier work
[3] = cited from earlier work
[4] = Visit 1 (Day 1), no CBD, based on AUClast, corrected for molecular weight ratio, N=13
[5] = Visit 1 (Day 1): 25 mg amitriptyline + 50 mg tramadol oral, no CBD, N=13
[6] = Visit 2 (Day 8), 30 mg CBD 1 h prior, based on AUClast, corrected for molecular weight ratio, N=12
[7] = Visit 2 (Day 8): 30 mg CBD oral 1 h prior to 25 mg amitriptyline + 50 mg tramadol, N=12
[8] = Visit 1: without CBD, mixed effects model on log-transformed data
[9] = Visit 2 (with 30 mg CBD) vs Visit 1 (without CBD)
[10] = Visit 2: with 30 mg CBD, mixed effects model on log-transformed data
[11] = human, in vivo, Geometric mean, Visit 1 (Day 1): 25 mg amitriptyline + 50 mg tramadol oral, no CBD, N=13
[12] = human, in vivo, Geometric mean, Visit 2 (Day 8): 30 mg CBD oral 1 h prior to 25 mg amitriptyline + 50 mg tramadol, N=12
[13] = human, in vivo, Mean, Visit 1 (Day 1): 25 mg amitriptyline + 50 mg tramadol oral, no CBD, N=13
[14] = human, in vivo, Mean, Visit 2 (Day 8): 30 mg CBD oral 1 h prior to 25 mg amitriptyline + 50 mg tramadol, N=12
[15] = human, in vivo, Median, Visit 1 (Day 1): 25 mg amitriptyline + 50 mg tramadol oral, no CBD, N=13
[16] = human, in vivo, Median, Visit 2 (Day 8): 30 mg CBD oral 1 h prior to 25 mg amitriptyline + 50 mg tramadol, N=12

For CN(C)CCC=C1c2ccccc2CCc2ccccc21 [Amitriptyline], the baseline amitriptyline concentration ([1]; human, in vivo) is given as 0.85 ng/mL, the “terminal half‐life” value [2] is given as ~ 25 h and the “mean (SD) AUC” value ([2]; 28 participants dosed with 10 mg of amitriptyline) is given as 156 (87.8) ng*h/mL. The AUC(0-t) (clinical; human, in vivo) was 139 ng·h/mL, the “Clast, back transformed LSM Visit 1” value (clinical; human, in vivo) was 3.40 and the Cmax (clinical; human, in vivo) was 12.3 ng/mL. For the same compound, the AUC(0-t) (clinical; human, in vivo, 30 mg) was 156 ng·h/mL and the Cmax (clinical; human, in vivo, 30 mg) was 14.5 ng/mL.

In the case of CN(C)C[C@H]1CCCC[C@]1(O)c1cccc(O)c1 [O‐desmethyltramadol], the “MPR (metabolite to parent ratio), Geometric mean” value [1, 4] is reported as 0.37, the “MPR (metabolite to parent ratio), Mean” value [1, 4] is reported as 0.40 and the “MPR (metabolite to parent ratio), Median” value [1, 4] is reported as 0.33. For the same compound, the “AUClast, Geometric mean” value [1, 5] was 400.4 ng·h/mL, the “AUClast, Mean” value [1, 5] was 412.0 ng·h/mL and the “AUClast, Median” value [1, 5] was 388.6 ng·h/mL. The “Clast, Geometric mean” value [1, 5] was 4.4 ng/mL, the “Clast, Mean” value [1, 5] was 4.8 ng/mL and the “Clast, Median” value [1, 5] was 4.1 ng/mL. For the same compound, the “Cmax, Geometric mean” value [1, 5] was 35.0 ng/mL, the “Cmax, Mean” value [1, 5] was 36.7 ng/mL and the “Cmax, Median” value [1, 5] was 31.1 ng/mL. The “tlag, Median” value [1, 5] was 0.0 h, the “tmax, Median” value [1, 5] was 3.0 h and the “MPR (metabolite to parent ratio), Geometric mean” value [1, 6] was 0.37. The “MPR (metabolite to parent ratio), Mean” value [1, 6] was 0.39, the “MPR (metabolite to parent ratio), Median” value [1, 6] was 0.32 and the “AUClast, Geometric mean” value [1, 7] was 399.5 ng·h/mL. The “AUClast, Mean” value [1, 7] was 411.1 ng·h/mL, the “AUClast, Median” value [1, 7] was 396.1 ng·h/mL and the “Clast, Geometric mean” value [1, 7] was 4.0 ng/mL. The “Clast, Mean” value [1, 7] was 4.4 ng/mL, the “Clast, Median” value [1, 7] was 3.9 ng/mL and the “Cmax, Geometric mean” value [1, 7] was 37.6 ng/mL. For the same compound, the “Cmax, Mean” value [1, 7] was 39.5 ng/mL, the “Cmax, Median” value [1, 7] was 33.6 ng/mL and the “tlag, Median” value [1, 7] was 0.0 h. For the same compound, the “tmax, Median” value [1, 7] was 2.5 h, the “terminal half‐life” value [2] was ~ 7 h and the “mean (SD) AUC” value ([2]; 25 participants dosed with 100 mg tramadol) was 669 (181) ng*h/mL. The “MPR, back transformed LSM Visit 1” value (clinical; Visit 1: without CBD, metabolite to parent ratio) was 0.37, the “AUClast, back transformed LSM Visit 1” value (clinical; [8]) was 400.41 and the “Clast, back transformed LSM Visit 1” value (clinical; [8]) was 4.43. For the same compound, the “Cmax, back transformed LSM Visit 1” value (clinical; Visit 1: without CBD, mixed effects model on log-transformed data, in ng/mL) was 34.99, the “AUClast, Ratio of LSMs” value (clinical; [9]) was 0.99 and the “Clast, Ratio of LSMs” value (clinical; [9]) was 0.91. The “Cmax, Ratio of LSMs” value (clinical; [9]) was 1.05, the “MPR, Ratio of LSMs” value (clinical; [9]) was 0.95 and the “MPR, back transformed LSM Visit 2” value (clinical; Visit 2: with 30 mg CBD, metabolite to parent ratio) was 0.36. The “AUClast, back transformed LSM Visit 2” value (clinical; [10]) was 396.86, the “Clast, back transformed LSM Visit 2” value (clinical; [10]) was 4.04 and the “Cmax, back transformed LSM Visit 2” value (clinical; Visit 2: with 30 mg CBD, mixed effects model on log-transformed data, in ng/mL) was 36.84.

For COc1cccc(C2(O)CCCCC2CN(C)C)c1 (stereo not drawn) [Tramadol], the “proportion of tramadol converted into O‐desmethyltramadol (O‐DSMT) by CYP2D6” value (CYP2D6) is listed as “approximately 80%”, the “Clast, Geometric mean” value [1, 5] is listed as 7.4 ng/mL and the “Clast, Mean” value [1, 5] is listed as 8.9 ng/mL. For the same compound, the “Clast, Median” value [1, 5] was 8.4 ng/mL, the “tlag, Median” value [1, 5] was 0.0 h and the “Clast, Geometric mean” value [1, 7] was 6.8 ng/mL. For the same compound, the “Clast, Mean” value [1, 7] was 8.7 ng/mL, the “Clast, Median” value [1, 7] was 8.0 ng/mL and the “tlag, Median” value [1, 7] was 0.0 h. For the same compound, the AUC(0-t) [1, 11] was 1130 ng·h/mL, the AUC(0-t) [1, 12] was 1150 ng·h/mL and the AUC(0-t) [1, 13] was 1170 ng·h/mL. It also gave an AUC(0-t) [1, 14] of 1210 ng·h/mL, an AUC(0-t) [1, 15] of 1240 ng·h/mL and an AUC(0-t) [1, 16] of 1160 ng·h/mL. The Cmax [1, 11] was 137 ng/mL, the Cmax [1, 12] was 150 ng/mL and the Cmax [1, 13] was 141 ng/mL. It also gave a Cmax [1, 14] of 153 ng/mL, a Cmax [1, 15] of 135 ng/mL and a Cmax [1, 16] of 155 ng/mL. For the same compound, the “terminal half‐life” value [2] was 5 to 6 h, the “Clast, back transformed LSM Visit 1” value (clinical; [8]) was 7.41 and the “AUClast, Ratio of LSMs” value (clinical; [9]) was 1.04. The “Clast, Ratio of LSMs” value (clinical; [9]) was 0.97, the “Cmax, Ratio of LSMs” value (clinical; [9]) was 1.10 and the “Clast, back transformed LSM Visit 2” value (clinical; [10]) was 7.16. The AUC(0-t) (clinical; human, in vivo) was 1130 ng·h/mL, the Cmax (clinical; human, in vivo) was 137 ng/mL and the AUC(0-t) (clinical; human, in vivo, 30 mg) was 1180 ng·h/mL. For the same compound, the Cmax (clinical; human, in vivo, 30 mg) was 151 ng/mL and the “proportion of tramadol converted into N‐desmethyltramadol (N‐DSMT) by CYP3A4 and CYP2B6” value (CYP3A4 and CYP2B6) was “approximately 20%”.

With CNCCC=C1c2ccccc2CCc2ccccc21 [Nortriptyline] the “MPR (metabolite to parent ratio), Geometric mean” value ([1]; human, in vivo) was 0.57, the “MPR (metabolite to parent ratio), Mean” value ([1]; human, in vivo) was 0.62 and the “MPR (metabolite to parent ratio), Median” value ([1]; human, in vivo) was 0.60. For the same compound, the “terminal half‐life” value [2] was ~ 26 h, the AUC(0-t) (clinical; human, in vivo) was 75.3 ng·h/mL and the “Clast, back transformed LSM Visit 1” value (clinical; human, in vivo) was 3.30. For the same compound, the Cmax (clinical; human, in vivo) was 4.36 ng/mL, the AUC(0-t) (clinical; human, in vivo, 30 mg) was 79.5 ng·h/mL and the Cmax (clinical; human, in vivo, 30 mg) was 4.51 ng/mL.

For 11‐OH‐THC, the “increase of mean AUC by 30 mg CBD” value ([3]; 30 mg CBD administered 30 min before THC) is listed as 71%.

For C=C(C)[C@@H]1CCC(C)=C[C@H]1c1c(O)cc(CCCCC)cc1O [Cannabidiol], the “mean±SD Cmax” value ([3]; previous study, 30 mg CBD tablet formulation after semi-standardized light breakfast) is listed as 5.6 ± 4.6 ng/mL, the “Clast, Geometric mean” value [1, 7] is listed as 1.0 ng/mL and the “Clast, Mean” value [1, 7] is listed as 1.1 ng/mL. For the same compound, the “Clast, Median” value [1, 7] was 1.1 ng/mL, the “tlag, Median” value [1, 7] was 0.0 h and the “tmax, Median” value [1, 7] was 2.0 h. For the same compound, the AUC(0-t) [1, 12] was 5.3 ng·h/mL, the AUC(0-t) [1, 14] was 6.9 ng·h/mL and the AUC(0-t) [1, 16] was 6.2 ng·h/mL. The Cmax [1, 12] was 2.9 ng/mL, the Cmax [1, 14] was 3.5 ng/mL and the Cmax [1, 16] was 3 ng/mL. For the same compound, the “terminal half‐life” value [2] was ~ 60 h.
